Where “and” joins values, the source holds several entries; their conditions need not be identical. Equal entries are not always repeated. One block for each compound: values may come before it.
Columns and labels:
[1] = molecular target: chymotrypsin-truncated R67 dihydrofolate reductase; assay: AUC
[2] = molecular target: T1, R67 dihydrofolate reductase (R67 DHFR) (Escherichia coli, UniProt P00383); assay: steady-state DHFR inhibition, Lineweaver–Burk slope replot; format: biochemical
T1 sequence (P00383 1-78): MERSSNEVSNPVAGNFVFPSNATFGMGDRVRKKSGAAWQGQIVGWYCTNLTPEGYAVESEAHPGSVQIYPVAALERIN

[3] = molecular target: T1, R67 dihydrofolate reductase (R67 DHFR); assay: steady-state DHFR inhibition vs DHF; format: biochemical
[4] = molecular target: T2, R67 dihydrofolate reductase (K33M) (Escherichia coli, UniProt P00383, K33M); assay: folate reduction kinetics; format: biochemical
T2 sequence (P00383 4-78 K33M): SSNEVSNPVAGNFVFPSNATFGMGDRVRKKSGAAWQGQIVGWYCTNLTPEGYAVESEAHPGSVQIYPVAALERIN

[5] = molecular target: chymotrypsin-truncated R67 dihydrofolate reductase cross-linked to folate with EDC; assay: AUC

- stoichiometry N [1]: 4 and 2
Compound: chymotrypsin-truncated R67 dihydrofolate reductase (enzyme)

Compound: NCCNC(=O)CC[C@H](NC(=O)c1ccc(NCc2cnc3nc(N)[nH]c(=O)c3n2)cc1)C(=O)NCCN [bis-EDA–folate]
- Ki [2]: 140 ± 15 µM

Compound: Nc1nc(=O)c2nc(CNc3ccc(C(=O)N[C@@H](CCC(=O)O)C(=O)O)cc3)cnc2[nH]1 [folate]
- Ki [3]: 16 ± 3 µM
- folate reduction kinetics (kcat) and EDC cross-linking inactivation [4]: 0.065 ± 0.017 min^–1

- stoichiometry N [5]: 4
Compound: chymotrypsin-truncated R67 dihydrofolate reductase cross-linked to folate with EDC (enzyme)

— PMC5147970 (Biochemistry, 2015)
